Data published in ChEMBL document CHEMBL1150312, “The SAR studies of novel CB2 selective agonists, benzimidazolone derivatives” (Bioorg Med Chem Lett, 2008).

Experiment: Bioavailability in rat at 3 mg/kg, po
Type: ADME, organism-based
Conditions: in vivo

Row | Structure (SMILES) | bioavailability
1 | CC(C)(O)CCn1c(=O)n(C(=O)N[C@H](C(N)=O)C(C)(C)C)c2ccccc21 | 33%

Experiment: Lipophilicity, log D at pH 7.4
Type: physicochemical
Conditions: buffer

Row | Structure (SMILES) | logD
2 | CC(C)(C)[C@H](NC(=O)n1c(=O)n(CCC2CCOCC2)c2ccccc21)C(N)=O | 2.4
3 | CC(C)(C)[C@H](NC(=O)n1c(=O)n(CC2CCCO2)c2ccccc21)C(N)=O (stereo not given in full) | 2.1
4 | CC(C)(C)[C@H](NC(=O)n1c(=O)n(CCC2(O)CCOCC2)c2ccccc21)C(N)=O | 1.9
5 | CN(C)CCn1c(=O)n(C(=O)N[C@H](C(N)=O)C(C)(C)C)c2ccccc21 | 1.5
6 | CC(C)(O)CCn1c(=O)n(C(=O)N[C@H](C(N)=O)C(C)(C)C)c2ccccc21 | 2.2
7 | CC(C)(C)[C@H](NC(=O)n1c(=O)n(CC2(O)CCOCC2)c2ccccc21)C(N)=O | 1.6
8 | CC(C)(O)Cn1c(=O)n(C(=O)N[C@H](C(N)=O)C(C)(C)C)c2ccccc21 | 2.2
9 | CC(C)(C)[C@H](NC(=O)n1c(=O)n(CCN2CCCC2)c2ccccc21)C(N)=O | 1.5
10 | CC(C)CCn1c(=O)n(C(=O)N[C@H](C(N)=O)C(C)(C)C)c2ccccc21 | 3.4
